pIC50: −log10 of the molar value. Entries after “also recorded” stand apart in the source; their conditions may differ. Where two headings read alike, the source gives them in different places.

Assay [1] has as its target T1, hBGT1 (Homo sapiens, UniProt P48065).
T1 construct: expressed in transfected cells; host or cells: tsA201 (transient)
T1 sequence (P48065 1-614): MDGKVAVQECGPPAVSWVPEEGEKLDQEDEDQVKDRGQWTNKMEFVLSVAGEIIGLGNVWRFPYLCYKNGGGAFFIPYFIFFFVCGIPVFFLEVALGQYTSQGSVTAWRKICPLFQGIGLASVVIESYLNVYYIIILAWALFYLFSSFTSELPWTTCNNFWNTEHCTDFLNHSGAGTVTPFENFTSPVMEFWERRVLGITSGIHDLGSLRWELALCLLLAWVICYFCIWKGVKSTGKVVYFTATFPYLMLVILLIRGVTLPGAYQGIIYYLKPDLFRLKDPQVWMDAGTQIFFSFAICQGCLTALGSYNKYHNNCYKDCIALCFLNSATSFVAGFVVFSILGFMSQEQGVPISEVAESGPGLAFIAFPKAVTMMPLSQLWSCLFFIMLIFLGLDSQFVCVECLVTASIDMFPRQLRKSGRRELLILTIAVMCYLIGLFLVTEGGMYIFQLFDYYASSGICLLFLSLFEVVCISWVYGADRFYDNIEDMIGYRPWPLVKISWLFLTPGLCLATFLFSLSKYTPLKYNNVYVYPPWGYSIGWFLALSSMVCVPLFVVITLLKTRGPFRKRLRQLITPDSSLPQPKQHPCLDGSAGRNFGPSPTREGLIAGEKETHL
In words: [3H]GABA uptake at hBGT1 transiently expressed in tsA201 cells. Type of assay: cell-based. The conditions noted are these: for pIC50 / inhibition profile (mono-/biphasic) / IC50: 30 nM [3H]GABA, 3 min; for Frac: proportion of maximal response due to the more potent phase; for inhibition profile (mono-/biphasic): F test; for preferred curve fitting: in the presence of 10 μM ATP. As for the experimental part: The tsA201 cell line was used for transient expression while the MDCK II cell line express BGT1 endogenously. Both cell lines were cultured as described. tsA201 cells were transfected with DNA constructs (8 μg per 10 cm dish if not otherwise mentioned) using 40 μL PolyFect transfection reagent according to the manufacturer’s protocol (Qiagen, Venlo, Netherlands). The DNA constructs encoding hBGT1, hGAT1-3 [36], the mutated constructs hBGT1 Q299 and hGAT3 L314Q described previously, and hBGT Y453A were synthesized and sequence validated by Genscript (NJ, USA).
The [^3H]GABA competition uptake assay was performed as previously described. […] Studies related to the inhibition curves with GABA and BPDBA at hBGT1 were obtained both with and without the presence of 10 μM ATP during the [^3H]GABA uptake assay.
All compounds, except BAPTA/AM, were also present at the same concentration during the course of the actual [^3H]GABA uptake assay.
The [^3H]GABA uptake data was normalized to the percentage of total uptake in the individual experiments in the presence of the lowest compound concentration or no compound present. Data presented is the pooled data of at least three independent experiments with three technical replicates. Concentration–response curves (CRCs) were fitted with GraphPad Prism (version 8.2.1, Yosemite, GraphPad Software, San Diego, CA, USA) by non-linear regression to the sigmoidal concentration response model: Y=Bottom+(Top-Bottom)/1+10^LogIC50-X∗nH where Top is the Top plateau, Bottom is the Bottom plateau, X is the logarithm of the concentration of the compound, LogIC50 is the concentration giving a response halfway between Top and Bottom,and nH is the Hill slope.
The best fit for CRCs obtained with the [^3H]GABA uptake assay was identified by the extra-sum-of-squares F test (for convenience referred to as F test).

Assay [2] concerns tsA201 cells transiently expressing hBGT1. The experiment in a line: Fluo-4 Ca2+-assay in tsA201 cells transiently expressing hBGT1. Format: cell-based, human. The settings on record: within the 3 min timeframe; blocked by BAPTA/AM. As for the experimental part: Emission was recorded for 20 s. before adding the compounds (at 4 × concentrations) to the HBSS-HEPES buffer to determine the baseline. […] Data presented is the pooled data of at least three independent experiments with three technical replicates. Changes in fluorescence units (ΔFU) were determined as the maximum fluorescent signal within the 190 s minus the average of the baseline.

The subject of assay [3] is 74 different neuroreceptors and ion channels. The conditions noted are these: adrenergic, GABAergic and dopaminergic receptors included; cited from earlier work.
The mark [4] stands for this setting: read-out: IC50, low affinity component (high IC50), biphasic fit, tsA201, 8 μg cDNA.
[5] abbreviates: biphasic fit, tsA201, 8 μg cDNA, read-out: IC50, low affinity component (high IC50).
Where [6] appears, read: monophasic fit (biphasic n.s.), read-out: IC50.

Turning to `Cc1ccsc1C(=CCCN(C)[C@@H]1CCCC[C@H]1C(=O)O)c1sccc1C` [(1R,2R)-4a, (1R,2R)-2-((4,4-bis(3-methylthiophen-2-yl)but-3-en-1-yl)(methyl)amino)cyclohexane-1-carboxylic acid], the pIC50 in assay [1] (pIC50 ± S.E.M., high affinity component, biphasic fit, tsA201, 8 μg cDNA) was 5.47; in assay [1] (setting [4]), 3.25. In assay [1] (8 μg cDNA), this molecule gave a Frac of 0.19.

Turning to `CN(CCC=C1c2ccccc2CCc2ccccc21)[C@@H]1CCCC[C@@H]1C(=O)O` [(1R,2S)-5c, (1S,2R)-2-((3-(10,11-dihydro-5H-dibenzo[a,d][7]annulen-5-ylidene)propyl)(methyl)amino)cyclohexane-1-carboxylic acid], the pIC50 in assay [1] (biphasic fit, tsA201, 8 μg cDNA, read-out: IC50, high affinity component (low IC50)) is 4.95; in assay [1] (setting [5]), 3.09. In addition, the Frac in assay [1] (8 μg cDNA) turned out to be 0.26.

Regarding `Cc1ccsc1C(=CCCN(C)[C@@H]1CCCC[C@@H]1C(=O)O)c1sccc1C` [(1S,2R)-5a, (1S,2R)-2-((4,4-bis(3-methylthiophen-2-yl)but-3-en-1-yl)(methyl)amino)cyclohexane-1-carboxylic acid], the pIC50 in assay [1] (IC50, high affinity component (low IC50), biphasic fit, tsA201, 8 μg cDNA) was 5.33; in assay [1] (setting [4]), 3.43. The molecule also returned a Frac in assay [1] (8 μg cDNA) of 0.28.

With `Cc1ccsc1C(CCCN(C)[C@@H]1CCCc2onc(O)c21)c1sccc1C` [(R)-EF1502, (R)-4-((4,4-bis(3-methylthiophen-2-yl)butyl)(methyl)amino)-4,5,6,7-tetrahydrobenzo[d]isoxazol-3-ol, reference compound], the “inhibition profile (mono-/biphasic)” value in assay [1] is reported as “biphasic CRC”. Moreover, in assay [1] (Hill slope of first phase, 8 μg cDNA), the nH1 result is listed as “–0.79”. The nH2 result in assay [1] (Hill slope of second phase, 8 μg cDNA) is given as “–2.35”. For the same molecule, the pIC50 in assay [1] (setting [5]) is 3.72. Further, the IC50 in assay [1] (biphasic fit, tsA201, 8 μg cDNA, read-out: pIC50 ± S.E.M., high affinity component (converted)) is 2.45 µM. In assay [1] (8 μg cDNA), the Frac came to 0.30.

As to `Nc1ncnc2c1ncn2[C@@H]1O[C@H](COP(=O)(O)OP(=O)(O)OP(=O)(O)O)[C@@H](O)[C@H]1O` [ATP, adenosine 5′-triphosphate, reference compound], the “intracellular Ca2+ increase” value in assay [2] is “induced a Ca^2+ increase”. The “decrease of total [3H]GABA uptake” value in assay [1] (ATP present during uptake (10 μM per methods)) was 9%.

Take `O=C(NC1CCN(Cc2ccccc2)CC1)c1ccc(Cl)cc1Cl` [BPDBA, N-(1-benzyl-4-piperidinyl)-2,4-dichlorobenzamide, reference compound]: in assay [1], the “inhibition profile (mono-/biphasic)” value was “monophasic; also recorded: did not inhibit hBGT1 in a biphasic manner” and the preferred curve fitting entry is “monophasic fit”. The pIC50 in assay [1] (setting [6]) is 4.83. The IC50 in assay [1] (monophasic fit (biphasic n.s.), read-out: pIC50 ± S.E.M. (converted)) was 15.1 µM.

With `NCCCC(=O)O` [GABA, γ-Aminobutyric acid], in assay [1], the “inhibition profile (mono-/biphasic)” value is given as “monophasic” and the preferred curve fitting result is recorded as “monophasic fit”.

As to `COc1ccccc1C1(O)CCN(CCCn2c3ccccc3c3ccccc32)CC1` [NNC 05-2090, 1-[3-(9H-Carbazol-9-yl)propyl]-4-(2-methoxyphenyl)-4-piperidinol, reference compound], the “inhibition profile (mono-/biphasic)” value in assay [1] is reported as “did not inhibit hBGT1 in a biphasic manner”. In addition, the negative-log IC50 (pIC50) in assay [1] (setting [6]) is 3.93.

For the molecule “N-[4,4-bis(3-methyl-2-thienyl)-3-butenyl]-3-hydroxy-4-(methylamino)-4,5,6,7-tetrahydrobenzo[d]isoxazol-3-ol [EF1502]”, the “activity at a broad range of neurotransmitter systems” value in assay [3] is “completely devoid of any activity”.

The term pIC50 denotes −log10 of the IC50, conventionally taken in molar units.

Values taken from PMC7297817, “Pharmacological Characterization of a Betaine/GABA Transporter 1 (BGT1) Inhibitor Displaying an Unusual Biphasic Inhibition Profile and Anti-seizure Effects” (Neurochemical Research, 2020).
